Assay results reported in PMC12021087, “RFWD3 Reprograms Nucleotide Metabolism Through PHGDH to Induce Chemoresistance In Osteosarcoma” (Advanced Science, 2025).

Target: T1, RFWD3 (Ring Finger and WD Repeat Domain 3) (Homo sapiens, UniProt Q6PCD5)
T1 construct: endogenous full-length protein in whole lysate of 143B osteosarcoma cells, no tag
T1 sequence (Q6PCD5 1-774): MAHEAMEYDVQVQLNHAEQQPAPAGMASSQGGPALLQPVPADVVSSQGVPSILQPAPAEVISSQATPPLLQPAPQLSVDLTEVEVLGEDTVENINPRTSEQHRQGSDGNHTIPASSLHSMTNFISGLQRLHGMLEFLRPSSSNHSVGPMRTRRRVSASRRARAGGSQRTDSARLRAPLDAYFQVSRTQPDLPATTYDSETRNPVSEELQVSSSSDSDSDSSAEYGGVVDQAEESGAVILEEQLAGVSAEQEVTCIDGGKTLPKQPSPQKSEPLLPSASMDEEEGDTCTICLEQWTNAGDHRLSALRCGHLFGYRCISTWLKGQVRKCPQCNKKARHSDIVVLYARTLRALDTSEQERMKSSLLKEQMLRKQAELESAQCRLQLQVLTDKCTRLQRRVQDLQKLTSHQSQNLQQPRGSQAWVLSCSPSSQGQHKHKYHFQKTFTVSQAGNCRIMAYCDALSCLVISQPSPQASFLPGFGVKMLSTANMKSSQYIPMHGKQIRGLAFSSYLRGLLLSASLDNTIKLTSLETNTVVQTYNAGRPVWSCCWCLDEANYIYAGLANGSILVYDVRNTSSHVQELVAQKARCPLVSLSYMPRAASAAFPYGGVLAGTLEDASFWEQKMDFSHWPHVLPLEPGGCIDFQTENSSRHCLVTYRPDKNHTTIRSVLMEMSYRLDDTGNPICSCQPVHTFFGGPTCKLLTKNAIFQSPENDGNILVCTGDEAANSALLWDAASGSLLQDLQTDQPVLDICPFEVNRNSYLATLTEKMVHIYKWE
Test: CETSA (lysate, Western blot) and DARTS (pronase)
Type: biochemical
Conditions: 143B cell lysate; CETSA 10 µM lomitapide, 1 h room temperature, heated 5 min; DARTS 1 and 10 µM lomitapide, 4 h, pronase 2 µg/mL

O=C(NC1CCN(CCCCC2(C(=O)NCC(F)(F)F)c3ccccc3-c3ccccc32)CC1)c1ccccc1-c1ccc(C(F)(F)F)cc1 [lomitapide]
CETSA (lysate, Western blot) and DARTS (pronase): lomitapide protected RFWD3 from pronase degradation and significantly enhanced its thermal stability
